Results on 31 molecules are retold here after paper PMC8972196, “A Set of Experimentally Validated Decoys for the Human CC Chemokine Receptor 7 (CCR7) Obtained by Virtual Screening” (Frontiers in Pharmacology, 2022).

The target of the assay is T1, human CCR7 (Homo sapiens, UniProt P32248).
T1 construct: expressed in transfected cells
T1 sequence (P32248 25-378): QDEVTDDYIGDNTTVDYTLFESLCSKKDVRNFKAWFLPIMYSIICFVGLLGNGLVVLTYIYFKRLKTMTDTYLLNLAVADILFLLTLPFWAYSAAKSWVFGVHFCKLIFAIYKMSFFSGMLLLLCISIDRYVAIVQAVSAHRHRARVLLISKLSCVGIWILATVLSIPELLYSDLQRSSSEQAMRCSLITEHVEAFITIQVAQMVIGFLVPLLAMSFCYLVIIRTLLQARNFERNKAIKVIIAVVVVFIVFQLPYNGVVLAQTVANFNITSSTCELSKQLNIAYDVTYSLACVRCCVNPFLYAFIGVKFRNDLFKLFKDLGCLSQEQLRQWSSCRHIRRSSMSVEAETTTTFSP
Put plainly: CCL19-induced calcium mobilization assay, U87.CD4 cells expressing CCR7. The assay is classed as cell-based. Conditions: for IC50: CCL19-induced calcium signaling, read-out: IC50 [μM] block CCL19 induced calcium signaling; for Decoy – 0 Active – 1: classification of tested compounds as decoy or active. The method, then: U87.CD4 cells that stably express either human CCR7, CXCR2, CCR5 or CXCR4 were seeded (20,000 cells/well) in gelatin-coated black-walled polystyrene 96-well plates with clear bottom and incubated overnight at 37°C and 5% CO2. […] Culture medium was removed, and cells were incubated for 45 min at room temperature in the dark. […] Exactly the same protocol was used to record calcium responses in Chinese hamster ovary (CHO)-K1 cells, upon stimulation with adenosine triphosphate (ATP, purchased from Sigma).
(Calcium assays in cells follow changes in intracellular calcium, usually with a dye or a luminescent sensor.)

Some results are limits rather than exact numbers.

For `CC(C)[C@@H]1OCCC[C@@H]1Nc1cc(N2CC[C@H](OCc3ccccn3)C2)ncn1` [C084, CC(C)[C@@H]1OCCC[C@@H]1Nc1cc(N2CC[C@H](OCc3ccccn3)C2)ncn1], the IC50 – broadly, the point on the concentration scale where inhibition reaches its midpoint – was greater than 50 µM and the “Decoy – 0 Active – 1” value came out at 0.

As for `CN(C)S(=O)(=O)c1ccc(-c2nnc(C(=O)NCc3ccccn3)o2)cc1` [C085, CN(C)S(=O)(=O)c1ccc(-c2nnc(C(=O)NCc3ccccn3)o2)cc1], the IC50 is greater than 50 µM and the “Decoy – 0 Active – 1” value came to 0.

Regarding `O=C([C@@H]1CCCO1)N1CCc2ncnc(NCCc3ccco3)c2CC1` [C086, O=C([C@@H]1CCCO1)N1CCc2ncnc(NCCc3ccco3)c2CC1], the IC50 is greater than 50 µM and the “Decoy – 0 Active – 1” value was determined as 0.

For the molecule `O=C(c1ccnc(N[C@H]2CCCN(Cc3cccnc3)C2)c1)N1CCCC1` [C087, O=C(c1ccnc(N[C@H]2CCC[N@@H+](Cc3cccnc3)C2)c1)N1CCCC1], the IC50 is greater than 50 µM and the “Decoy – 0 Active – 1” value amounted to 0.

On to `Cc1ccc(CNC(=O)c2nnc(-c3ccc(S(=O)(=O)N(C)C)cc3)o2)o1` [C088, Cc1ccc(CNC(=O)c2nnc(-c3ccc(S(=O)(=O)N(C)C)cc3)o2)o1], for which the IC50 is greater than 50 µM and the “Decoy – 0 Active – 1” value came to 0.

For the molecule `CN(C)S(=O)(=O)c1ccc(-c2nnc(C(=O)NCc3ccccc3)o2)cc1` [C089, CN(C)S(=O)(=O)c1ccc(-c2nnc(C(=O)NCc3ccccc3)o2)cc1], the IC50 is greater than 50 µM and the “Decoy – 0 Active – 1” value stood at 0.

As to `Cc1nc(CCCC(=O)N[C@H]2CCN(C(C)C)C2=O)cs1` [C090, Cc1nc(CCCC(=O)N[C@H]2CCN(C(C)C)C2=O)cs1], the IC50 is greater than 50 µM and the “Decoy – 0 Active – 1” value is recorded as 0.

Regarding `Cc1ccc(CNC(=O)c2nnc(-c3ccc(S(=O)(=O)N4CCCC4)cc3)o2)o1` [C091, Cc1ccc(CNC(=O)c2nnc(-c3ccc(S(=O)(=O)N4CCCC4)cc3)o2)o1], the IC50 was greater than 50 µM and the “Decoy – 0 Active – 1” value is recorded as 0.

As for `C[C@@H](NC(=O)c1nnc(-c2ccc(S(=O)(=O)N(C)C)cc2)o1)c1ccccn1` [C092, C[C@@H](NC(=O)c1nnc(-c2ccc(S(=O)(=O)N(C)C)cc2)o1)c1ccccn1], the half-inhibitory concentration (IC50) was greater than 50 µM and the “Decoy – 0 Active – 1” value is 0.

For the molecule `Cc1c(C(=O)NCC2CC2)sc2ncnc(NCCc3ccccn3)c12` [C093, Cc1c(C(=O)NCC2CC2)sc2ncnc(NCCc3ccccn3)c12], the IC50 is greater than 50 µM and the “Decoy – 0 Active – 1” value is 0.

As for `COc1cccc(-c2cc(C(=O)NCc3ccco3)no2)c1` [C094, COc1cccc(-c2cc(C(=O)NCc3ccco3)no2)c1], the IC50 is greater than 50 µM and the “Decoy – 0 Active – 1” value stood at 0.

Consider `O=C(NCc1ccccn1)c1cn2c(n1)C(=O)N(CC1CC1)CC2` [C095, O=C(NCc1ccccn1)c1cn2c([nH+]1)C(=O)N(CC1CC1)CC2], for which the IC50 is greater than 50 µM and the “Decoy – 0 Active – 1” value is 0.

As for `O=C(CCCc1ccccc1)N[C@H]1CCN(CC(F)(F)F)C1=O` [C096, O=C(CCCc1ccccc1)N[C@H]1CCN(CC(F)(F)F)C1=O], the IC50 is greater than 50 µM and the “Decoy – 0 Active – 1” value is reported as 0.

Take `Cc1cc(NCCc2nccs2)nc(-c2cccc([N+](=O)[O-])c2)n1` [C097, Cc1cc(NCCc2nccs2)nc(-c2cccc([N+](=O)[O-])c2)n1]: the IC50 was greater than 50 µM and the “Decoy – 0 Active – 1” value is 0.

Turning to `CNC(=O)c1cccc(NC(=O)N2CC[C@@H](c3ccccc3)C2)c1C` [C098, CNC(=O)c1cccc(NC(=O)N2CC[C@@H](c3ccccc3)C2)c1C], the half-maximal inhibitory concentration (IC50) is greater than 50 µM and the “Decoy – 0 Active – 1” value came out at 0.

`Cc1c(NC(=O)CN(C)Cc2ccc(F)cc2)cccc1C(=O)N(C)C` [C099, Cc1c(NC(=O)C[N@H+](C)Cc2ccc(F)cc2)cccc1C(=O)N(C)C]: the IC50 is greater than 50 µM and the “Decoy – 0 Active – 1” value is 0.

As for `CNC(=O)c1cccc(NC(=O)c2cn(Cc3ccccn3)nn2)c1C` [C100, CNC(=O)c1cccc(NC(=O)c2cn(Cc3ccccn3)nn2)c1C], the IC50 is greater than 50 µM and the “Decoy – 0 Active – 1” value is recorded as 0.

In the case of `CS(=O)(=O)c1ccc(-c2cccc(NC(=O)[C@H]3CCCO3)c2)nn1` [C101, CS(=O)(=O)c1ccc(-c2cccc(NC(=O)[C@H]3CCCO3)c2)nn1], the IC50 is greater than 50 µM and the “Decoy – 0 Active – 1” value is 0.

Turning to `CCN(CC)S(=O)(=O)c1ccc2c(c1)cc(C(=O)NCc1ccc(C)o1)n2C` [C102, CCN(CC)S(=O)(=O)c1ccc2c(c1)cc(C(=O)NCc1ccc(C)o1)n2C], the IC50 is greater than 50 µM and the “Decoy – 0 Active – 1” value amounted to 0.

In the case of `CCOC(=O)c1sc2ncnc(NC[C@H]3CCCO3)c2c1C` [C103, CCOC(=O)c1sc2ncnc(NC[C@H]3CCCO3)c2c1C], the IC50 is greater than 50 µM and the “Decoy – 0 Active – 1” value worked out at 0.

On to `CCOC[C@H]1CCN(C(=O)Nc2cccn(CC(F)(F)F)c2=O)C1` [C104, CCOC[C@H]1CCN(C(=O)Nc2cccn(CC(F)(F)F)c2=O)C1], for which the IC50 is greater than 50 µM and the “Decoy – 0 Active – 1” value is recorded as 0.

With `CN(C)C(=O)c1ccc(CN2CCCC[C@H]2CCn2cccn2)o1` [C105, CN(C)C(=O)c1ccc(C[N@H+]2CCCC[C@H]2CCn2cccn2)o1], the IC50 was greater than 50 µM and the “Decoy – 0 Active – 1” value turned out to be 0.

For `Cc1ccc(NC(=O)CN(C)C[C@@H]2CCCO2)cc1[N+](=O)[O-]` [C106, Cc1ccc(NC(=O)C[N@@H+](C)C[C@@H]2CCCO2)cc1[N+](=O)[O-]], the concentration for half-maximal inhibition (IC50) is greater than 50 µM and the “Decoy – 0 Active – 1” value was 0.

In the case of `CN1CC[C@H](NC(=O)CN[C@@H](c2ccccc2)C(F)(F)F)C1=O` [C107, CN1CC[C@H](NC(=O)CN[C@@H](c2ccccc2)C(F)(F)F)C1=O], the IC50 is greater than 50 µM and the “Decoy – 0 Active – 1” value is given as 0.

Take `C[C@@H](CNC(=O)N[C@H]1CCO[C@@H](c2ccccc2)C1)c1ccsc1` [C108, C[C@@H](CNC(=O)N[C@H]1CCO[C@@H](c2ccccc2)C1)c1ccsc1]: the IC50 was greater than 50 µM and the “Decoy – 0 Active – 1” value came to 0.

As for `C[C@@H](CNC(=O)N[C@H]1CCO[C@@H](C2CC2)C1)c1ccsc1` [C109, C[C@@H](CNC(=O)N[C@H]1CCO[C@@H](C2CC2)C1)c1ccsc1], the IC50 is greater than 50 µM and the “Decoy – 0 Active – 1” value came to 0.

For the molecule `CN(C)C(=O)c1cccc(CN2CCC[C@@H]2C[C@H](O)c2cnn(C)c2)c1` [C110, CN(C)C(=O)c1cccc(C[N@@H+]2CCC[C@@H]2C[C@H](O)c2cnn(C)c2)c1], the half-inhibitory concentration (IC50) was greater than 50 µM and the “Decoy – 0 Active – 1” value was determined as 0.

Consider `CN(C)C(=O)c1cccc(N[C@H]2CCCN(Cc3cccc(O)c3)C2)n1` [C111, CN(C)C(=O)c1cccc(N[C@H]2CCC[N@H+](Cc3cccc(O)c3)C2)n1], for which the IC50 is greater than 50 µM and the “Decoy – 0 Active – 1” value is 0.

`CC(C)[C@@H](NC(=O)CCN1CCCCCC1=O)c1ccccc1` [C112, CC(C)[C@@H](NC(=O)CCN1CCCCCC1=O)c1ccccc1]: the IC50 was greater than 50 µM and the “Decoy – 0 Active – 1” value came out at 0.

`Cc1cnc([C@@H](C)CNC(=O)Nc2ccc3c(c2)S(=O)(=O)CC3)s1` [C113, Cc1cnc([C@@H](C)CNC(=O)Nc2ccc3c(c2)S(=O)(=O)CC3)s1]: the IC50 was greater than 50 µM and the “Decoy – 0 Active – 1” value is 0.

As for `C[C@H](c1ccccc1)[C@@H](C)NC(=O)N[C@H]1CCN(C)C1=O` [C114, C[C@@H](NC(=O)N[C@H]1CCN(C)C1=O)[C@H](C)c1ccccc1], the IC50 was greater than 50 µM and the “Decoy – 0 Active – 1” value is reported as 0.
